ChEMBL document CHEMBL1148930, “DNA polymerase beta lyase inhibitors from Maytenus putterlickoides” (J Nat Prod, 2004)

Legend:
[1] = system: A549; experiment: Cytotoxicity against human A549 cells assessed as cell viability at 62.5 uM after 48 hrs by MTT assay relative to control; type: functional; settings: A549, 48 h, read-out: Activity
[2] = system: A549; experiment: Cytotoxicity against human A549 cells assessed as cell viability at 200 uM after 48 hrs by MTT assay relative to control; type: functional; settings: A549, 48 h, read-out: Activity
[3] = target: DNA polymerase beta (Rattus norvegicus, UniProt P06766); experiment: Inhibition of lyase activity of rat DNA polymerase beta after 30 mins by deoxyribose phosphate excision assay
[4] = system: A549; experiment: Potentiation of methyl methanesulfonate-induced cytotoxicity against human A549 cells assessed as cell viability after 48 hrs by MTT assay relative to control; type: functional

IC50 [3] [µM] | SMILES | viability at 62.5 µM [1] [%] | viability at 200 µM [2] [%] | Activity [4] [%]
62.8 | C=C(COC(=O)c1ccc(O)cc1)[C@@H]1CC[C@]2(C)CC[C@]3(C)[C@H](C[C@@H](O)[C@@H]4[C@@]5(C)CCC(=O)C(C)(C)[C@@H]5CC[C@]43C)[C@@H]12 | 100 | 100 | 100
18.5 | Oc1cc(O)c2c(c1)O[C@H](c1ccc(O)c(O)c1)[C@H](O)C2 [(-)-EPICATECHIN] | 100 | 100 | 86.6
